According to patent US6159963A, “Method for treating substance abuse” (Eli Lilly and Company, priority 1996, dated 2000):

How the values were obtained:
5-HT1C receptor = assay: pharmacological studies, 5-HT1C receptor activity
patients = assay: double-blind multicenter clinical trial, olanzapine versus placebo; type: in vivo, human; settings: patients randomized to olanzapine or placebo
Description: A double-blind multicenter clinical trial was designed to assess the safety and efficacy of olanzapine. Patients were randomized to olanzapine or placebo.

[1] = test system: muscarinic cholinergic receptor; assay: pharmacological studies, muscarinic cholinergic receptor activity

## Cc1cc2c(s1)Nc1ccccc1N=C2N1CCN(C)CC1 [olanzapine, 2-methyl-4-(4-methyl-1-piperazinyl)-10H-thieno[2,3-b][1,5]benzodiazepine]
5-HT1C receptor
  activity at the 5-HT1C receptor: active
patients
  usefulness for treatment of addictive substance withdrawal (clinical observations): can be useful for the treatment of addictive substance withdrawal
[1]
  muscarinic cholinergic receptor activity: has muscarinic cholinergic receptor activity
